Experimental data from publication PMC9189076 (Oncogene, 2022).

What was measured:
[1] = molecular target: T1, WDR5 (Homo sapiens, UniProt P61964); assay: Isothermal titration calorimetry; assay type: binding; conditions: for binding to WDR5 (ITC, in words): MS169 compared to MS40
[2] = molecular target: CRBN's C-terminal thalidomide binding domain (CRBN-TBD) (Homo sapiens, UniProt Q96SW2); assay: ITC, binding to CRBN thalidomide-binding domain
[3] = test system: H3K4me2; assay: Global histone methylation immunoblotting in MV4; assay type: cell-based, human; conditions: MV4;11 cells, 0.5 μM, 4 days
[4] = test system: MV4;11 cells; assay: RNA-seq transcriptomic profiling in MV4; assay type: cell-based, human
[5] = molecular target: T1, WDR5; conditions: five lines of MLL-r AML and eight lines of breast cancer, 18 h
[6] = test system: IKZF1 and IKZF3; assay: IKZF1/IKZF3 degradation by immunoblotting in cells; assay type: cell-based, human; conditions: MV4;11, RS4;11 and other cell lines
[7] = test system: MLL-AF9 + AML PDX tumors; assay: MLL-AF9+ AML PDX subcutaneous xenograft efficacy; assay type: in vivo, NSG-SGM3 mice; conditions: i.p. once a day, 5 days per week; MS40 100 mg/kg, MS169 34 mg/kg, MS40N2 100 mg/kg
[8] = Compound concentrations in plasma and tumor of PDX-bearing mice; assay type: in vivo, NSG-SGM3 mice; conditions: two hours post last dose; MS40 100 mg/kg, MS169 34 mg/kg, MS40N2 100 mg/kg
[9] = molecular target: VHL–Elongin C–Elongin B ternary complex (VCB) (Homo sapiens, UniProt P40337); assay: ITC, binding to VHL E3 ligase complex; conditions: compared to MS40
[10] = molecular target: LIMD1 (Homo sapiens, UniProt Q9UGP4); assay: LIMD1 degradation by immunoblotting in MV4; assay type: cell-based; conditions: MV4;11 and RS4;11 cells, 0.5 μM, 18 h
[11] = test system: BT549 and SUM149 breast cancer cells; assay: Anti-proliferative effect in breast cancer cells; assay type: cell-based; conditions: MS40 relative to MS40N1 and OICR-9429
[12] = molecular target: CRBN-TBD; conditions: read-out: KD, affinity to CRBN-TBD; cited from earlier work

CRBN's C-terminal thalidomide binding domain (CRBN-TBD), sequence (Q96SW2 318-426 limits assumed): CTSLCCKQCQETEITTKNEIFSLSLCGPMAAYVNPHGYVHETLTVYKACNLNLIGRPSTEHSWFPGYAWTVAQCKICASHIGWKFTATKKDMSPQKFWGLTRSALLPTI
LIMD1, sequence (Q9UGP4 whole entry): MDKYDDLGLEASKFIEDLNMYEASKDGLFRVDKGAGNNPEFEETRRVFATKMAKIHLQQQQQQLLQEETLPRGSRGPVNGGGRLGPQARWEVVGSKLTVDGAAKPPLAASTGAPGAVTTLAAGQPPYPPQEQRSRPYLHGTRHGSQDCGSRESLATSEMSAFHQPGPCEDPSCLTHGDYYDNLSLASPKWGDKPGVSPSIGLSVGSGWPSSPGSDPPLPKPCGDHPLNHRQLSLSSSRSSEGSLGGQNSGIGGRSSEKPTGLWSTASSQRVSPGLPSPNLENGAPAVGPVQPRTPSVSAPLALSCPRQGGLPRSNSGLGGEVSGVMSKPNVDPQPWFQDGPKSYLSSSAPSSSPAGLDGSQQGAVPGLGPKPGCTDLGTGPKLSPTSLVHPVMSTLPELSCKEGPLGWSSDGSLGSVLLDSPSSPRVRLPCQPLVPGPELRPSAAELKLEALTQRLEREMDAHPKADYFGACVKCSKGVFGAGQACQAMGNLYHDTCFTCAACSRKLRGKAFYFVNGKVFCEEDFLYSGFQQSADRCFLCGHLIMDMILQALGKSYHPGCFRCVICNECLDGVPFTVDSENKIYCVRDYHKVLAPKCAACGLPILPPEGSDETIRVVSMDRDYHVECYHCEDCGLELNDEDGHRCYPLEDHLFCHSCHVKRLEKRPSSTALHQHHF
VHL–Elongin C–Elongin B ternary complex (VCB), sequence (P40337 54-213 limits assumed): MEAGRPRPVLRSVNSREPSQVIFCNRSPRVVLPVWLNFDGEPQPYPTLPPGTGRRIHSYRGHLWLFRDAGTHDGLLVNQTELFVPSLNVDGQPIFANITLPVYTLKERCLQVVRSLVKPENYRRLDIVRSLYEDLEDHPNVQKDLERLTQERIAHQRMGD
VHL–Elongin C–Elongin B ternary complex (VCB), sequence (Q15369 17-112 partner limits assumed): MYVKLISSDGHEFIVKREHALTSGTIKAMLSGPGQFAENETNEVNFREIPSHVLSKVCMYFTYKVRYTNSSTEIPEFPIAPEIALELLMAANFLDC
VHL–Elongin C–Elongin B ternary complex (VCB), sequence (Q15370 1-104 partner limits assumed): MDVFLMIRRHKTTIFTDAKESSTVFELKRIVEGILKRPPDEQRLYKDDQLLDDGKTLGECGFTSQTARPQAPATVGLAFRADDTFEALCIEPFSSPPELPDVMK

For CN1CCN(c2ccc(-c3cccc(CN4CCN(CCNC(=O)CCCCCCCNc5cccc6c5C(=O)N(C5CCC(=O)N(C)C5=O)C6=O)CC4)c3)cc2NC(=O)c2c[nH]c(=O)cc2C(F)(F)F)CC1 (stereo not shown) [MS40N1], the “fold lower binding affinity to WDR5 compared to OICR-9429” value ([1]; ITC) was 4 fold, the Kd ([1]; read-out: KD, binding affinity to WDR5, ITC, 25 °C, mean ± SD of three experiments) was 130 ± 1 nM and the “KD, affinity to CRBN-TBD” value ([2]; 25 °C, mean ± SD) was “no binding was observed”. For the same molecule, the “global H3K4me2 level” value [3] was “but not OICR-9429 or MS40N1”, the “gene-expression changes compared to DMSO (RNA-seq)” value [4] was “did not result in significant gene-expression changes” and the “WDR5 degradation in panel of cell lines” value [5] was “did not induce notable WDR5 reduction”.

With O=C(CCCCCCCNc1cccc2c1C(=O)N(C1CCC(=O)NC1=O)C2=O)NCCN1CCN(Cc2cccc(-c3ccc(N4CCOCC4)c(NC(=O)c4c[nH]c(=O)cc4C(F)(F)F)c3)c2)CC1 (stereo not shown) [MS40N2] the “binding to WDR5 (ITC, in words)” value [1] was “not bind WDR5”, the “binding to CRBN (ITC, in words)” value [2] was “bind CRBN with a similar affinity as MS40” and the “IKZF1/IKZF3 degradation (immunoblot)” value [6] was “induced degradation of IKZF1 and IKZF3”. The “PDX tumor growth compared to vehicle” value [7] was “no detected inhibitory effects on PDX tumor growth” and the “detected concentrations in plasma and tumor samples post-treatment” value [8] was “higher than those of MS40”.

With Cc1ncsc1-c1ccc(CNC(=O)[C@@H]2C[C@@H](O)CN2C(=O)[C@@H](NC(=O)CCCCCCCCCC(=O)NCCN2CCN(Cc3cccc(-c4ccc(N5CCN(C)CC5)c(NC(=O)c5c[nH]c(=O)cc5C(F)(F)F)c4)c3)CC2)C(C)(C)C)cc1 [MS169] the “binding to WDR5 (ITC, in words)” value [1] was “comparable binding affinities to WDR5 and E3 ligase”, the “binding to E3 ligase (ITC, in words)” value [9] was “comparable binding affinities to WDR5 and E3 ligase” and the “IKZF1/IKZF3 degradation (immunoblot)” value [6] was “without affecting IKZF1/3”. For the same molecule, the “PDX tumor growth compared to vehicle” value [7] was “no detected inhibitory effects on PDX tumor growth” and the “detected concentrations in plasma and tumor samples post-treatment” value [8] was “higher than those of MS40”.

In the case of CN1CCN(c2ccc(-c3cccc(CN4CCOCC4)c3)cc2NC(=O)c2c[nH]c(=O)cc2C(F)(F)F)CC1 [OICR-9429], the “global H3K4me2 level” value [3] is reported as “but not OICR-9429 or MS40N1”.

With Nc1cccc2c1C(=O)N(C1CCC(=O)NC1=O)C2=O (stereo not shown) [pomalidomide] the “IKZF1/IKZF3 degradation (immunoblot)” value [6] was “led to degradation of IKZF1/3”, the “LIMD1 degradation (immunoblot)” value [10] was “but not LIMD1” and the “global H3K4me2 level” value [3] was “did not affect global H3K4me2”. For the same molecule, the “anti-proliferative effect in BT549 and SUM149” value [11] was “unaffected” and the Kd [12] was 16 ± 4 µM.
